The values that follow come from patent US6313096A, “Inhibitors of trypsin-like enzymes” (Trigen Limited, priority 2000, dated 2001).

The target of experiment [1] is T1, thrombin (Homo sapiens, UniProt P00734). Conditions: reversible and irreversible inhibitors of thrombin; cited from earlier work.
Experiment [2] concerns the target T1, thrombin. The experiment in a line: thrombin time determination. It counts as biochemical. The procedure:
The activity of the product as a thrombin inhibitor is measured by determination of the thrombin time essentially as described in European Patent Application 293 881, page 51. Using a 1 micromolar concentration of inhibitor, a mean thrombin time of 114 seconds is found, compared with 16 seconds in the absence of inhibitor.

Take `N=C(N)NCCC[C@@H](C=O)NC(=O)[C@@H]1CCCN1C(=O)[C@H](N)Cc1ccccc1` [D-Phe-Pro-Arginal]: the inhibition in vitro in experiment [1] was ~10^-8 M. As for `NC(N)=NCCC[C@H](NC(=O)[C@@H]1CCCN1C(=O)[C@H](N)Cc1ccccc1)C(=O)CCl` [D-Phe-Pro-Arg-CH2 Cl], in experiment [1], the inhibition in vitro is recorded as ~10^-8 M.

Regarding Z-D-Phe-Pro-BOMe-OPin [formula XII], the “thrombin inhibitor (in words)” value in experiment [2] is recorded as “strong thrombin inhibitor”. The compound further yielded a mean thrombin time in experiment [2] (1 micromolar concentration of inhibitor, 16 seconds in the absence of inhibitor) of 114 s.
